From article PMC12186697, “HypoxyStat, a small-molecule form of hypoxia therapy that increases oxygen-hemoglobin affinity” (Cell, 2025)

Key:
[1] = Stability of dosing suspension; type: physicochemical; settings: suspension in 0.5% HPMC, stored at 4 °C
Procedure: (§1) Mice were administered HypoxyStat at 600 mg/kg every other day or 400mg/kg daily via oral gavage. For the disease prevention experiments, KO mice that underwent daily dosing were dosed starting ~P30 for 1 week of 200mg/kg daily, followed by 400mg/kg daily to allow for gradual dose escalation. For the reversal study, KO mice were dosed once with 200mg/kg on postnatal day ~P55, followed by 400mg/kg daily. HypoxyStat was formulated as a suspension at 60 mg/mL, 40mg/ml or 80mg/ml depending on dose in 0.5%HPMC and stored at 4 °C. The formulation was determined to be stable for at least 8 weeks. Animal body weight was taken at time of dosing to determine appropriate dosing volume (10 mL/kg for every other day dosing, 5ml/kg for daily dosing). Vehicle treated mice were administered the same volume of 0.5% HPMC.

[2] = Mouse oral pharmacokinetics (blood and plasma, LC-MS/MS); type: in vivo, C57BL/6 mice
Procedure: We conducted a PK/PD study to determine the optimal dosing strategy for HypoxyStat in a chronic setting. First we administered a single 10 mg/kg oral dose of HypoxyStat to adult C57BL/6 mice and monitored its concentration in blood and plasma over a 10-day period (Figure 3A, left). Next, we administered HypoxyStat at doses of 20, 60, 200, and 600 mg/kg via oral gavage three times per week for 12 days. […] Based on blood levels of HypoxyStat and Hb measured on day 12, we estimated Hb occupancy to be 29.3% at 200 mg/kg and 41.4% at 600 mg/kg (Figure S1).[27]
Mouse plasma and whole blood samples were processed as outlined below. An equal volume of 3% aqueous formic acid in water was added to whole blood and plasma samples which were then vortexed at 600 rpm for 60 minutes at room temperature. Internal standard solution (acetonitrile containing 200 nM chrysin) was then added to the samples. They were then vortexed and centrifuged for 5 minutes at 4100 rpm and 4°C. Diluted extracts were injected into a Sciex 5500 LC-MS/MS system operated in positive mode for analysis. A Waters Acquity BEH C18 (50 x 2 mm, […]) UPLC column was used with Mobile Phases A (water:acetonitrile:formic acid [95:5:0.1, v:v:v]) and B (methanol:acetonitrile:formic acid [50:50:0.1, v:v:v]) to separate analytes. Multiple reaction monitoring transitions of 368/230 and 255/153 were used for HypoxyStat and chrysin, respectively.

Ndufs4 KO mouse [3] = assay: Ndufs4 KO mouse model of Leigh syndrome (survival, body weight, temperature, behavior, neuropathology); type: in vivo; settings: daily HypoxyStat initiated at P50
[4] = Safety studies in mice at optimized dose; type: in vivo; settings: optimized dose (400 mg/kg daily)
Procedure: Additionally, we used the Reaction Bio InVEST panel to test 25+ potential off-targets that have been identified by a consortium of pharmaceutical companies as high-yield candidates.
Hematocrit was determined with an iStat VetScan 1 with Zoetis Chem 8+ cartridges. Blood glucose measurements were performed using OneTouch UltraPlus glucometer. Whole blood chemistry measurements were performed on a VetScan HM5.

Ndufs4 KO mouse [5] = assay: Ndufs4 KO mouse model of Leigh syndrome (survival, body weight, temperature, behavior, neuropathology); type: in vivo
From the text: We continuously bred Ndufs4 Het x Het mice to generate KO and controls for our experiments. Ndufs4+/− and WT mice were used as controls as they are identical in all previously reported assays. Ndufs4 mice were obtained directly from Jackson labs (#027058). Pups were weaned and genotyped at ~21 d after birth. The age of mice at the time of experiments is described throughout the text. Male and female mice were used throughout studies. All cages were provided with food and water, with hydrated gel provided to newly weaned cages. Body weights were recorded at every dosing. Mice were euthanized according to guidelines at 20% drop in peak body weight. All animal studies were approved by the Institutional Animal Care & Use Committee (IACUC) Program at UCSF/Gladstone.
as §1
Mice were euthanized via CO2 inhalation. To perfuse the whole body, the right atrium was nicked and a needle was inserted into the left ventricle. Ice-cold PBS was slowly injected first, followed immediately by 4% PFA solution. The brain was removed, stored in 4% PFA for 24–48 h, and then washed with PBS for 5 min (3 times). The brains were placed in 70% ethanol followed by paraffin embedding. For paraffin sections, brains were sagittally sectioned at 5 μm thickness. Prior to staining, sections were deparaffinized. Antigen retrieval was performed by heating the slides to boiling temperature in 10 mM sodium citrate solution (pH 6) in a microwave, followed by heating for 10 minutes. The sections were rinsed 3 times for 5 minutes each with PBS. They were then incubated in a blocking solution containing 5% donkey serum (DS) in PBS-Tx (PBS with 0.2% Triton X-100) for 60 minutes at room temperature. After blocking, sections were incubated overnight at 4C with the primary antibody IBA1 (Genetex GTX100042, 1:250) and NeuN (Sigma, MAB377, 1:500). Afterward, the sections were rinsed 3 times for 5 minutes with PBS-Tx. Next, they were incubated with a fluorophore-conjugated secondary antibodies (Invitrogen, A21206 or A31570) for 1 hour at room temperature. Following secondary antibody incubation, the sections were rinsed 3 times for 5 minutes with PBS-Tx, and then once for 5 minutes with PBS. Histology was quantified using either the percentage of Iba1+ positive signal or blinded scoring (on the scale of 1–5).
The open field instrument (San Diego Instruments) was used to measure spontaneous locomotor activity. Mice were placed in open field chambers and allowed to acclimate for 5 min before movement tracking for 20min. Spontaneous locomotor activity was measured based on beam breaks and recorded by the instrument. Age of measurements is +/− 5 days for practical purposes without any age bias between groups.

## O=Cc1ccccc1C(=O)N1CCCC[C@H]1COc1cccc(O)c1C=O [HypoxyStat]
[1]
  stability of formulation: at least 8 weeks
[2]; 20, 60, 200 and 600 mg/kg oral gavage three times per week for 12 days
  concentration within red blood cells: dose-dependent increase
[2]; C57BL/6, in vivo, oral, 10 mg/kg, Figure 2A, mouse
  Cmax: 1590 nM
[2]; mouse, in vivo, 10 mg/kg oral gavage, C57BL/6 mice, read-out: effective half-life (Mouse PO half-life) (converted)
  half-life: 121 h
[2]; mouse, whole blood and plasma, 10 mg/kg oral gavage, C57BL/6 mice, 3 days post dosing
  blood plasma ratio at 3 days: 396
Ndufs4 KO mouse [3]
  reversal of body weight loss, impaired behavior and neurological lesions in late-stage KO mice: reversed multiple other disease presentations
Ndufs4 KO mouse [3]; p < 0.05 Mantel-Cox
  lifespan of late-stage Ndufs4 KO mice: significantly extended the lifespan
[4]
  classical safety parameters (body weight, organ weights, complete blood count, clinical chemistries): not adversely affected
Ndufs4 KO mouse [5]; 400 mg/kg daily oral gavage from P30 (1 week at 200 mg/kg)
  lifespan increase of Ndufs4 KO mice: 3–4 ×
Ndufs4 KO mouse [5]; 600 mg/kg every other day or 400 mg/kg daily, all control mice survived
  tolerability of chronic dosing in control (WT or heterozygous) mice: well tolerated
Ndufs4 KO mouse [5]; 600 mg/kg every other day oral gavage from P30
  lifespan increase of Ndufs4 KO mice: 1.5–2 ×
Ndufs4 KO mouse [5]; HypoxyStat from P30
  body temperature of Ndufs4 KO mice: restored body temperature to normal levels
  motor coordination (rotarod) and spontaneous activity (open field) of KO mice: significantly improved motor coordination and spontaneous activity
Ndufs4 KO mouse [5]; HypoxyStat from P30, comparable with inhaled hypoxia
  body weight of drug-treated KO mice: increased body weight
Ndufs4 KO mouse [5]; KO mice treated from P30, p < 0.05 vs vehicle
  lesion severity (Iba1 staining for microglial activation) at P50: significant reduction in lesion severity
